Experimental data published in patent publication US20110144022A1, “Anti-Angiogenic Peptide” (ISTITUTO NAZIONALE PER LA RICERCA SUL CANCRO, priority 2004, published 2011).

How the values were obtained:
[1] = system: polymorphonucleate (PMN); test: Neutrophil (PMN) chemotaxis assay with IL-8 as chemoattractant; format: cell-based; settings: CXCR1 and CXCR2-agonist and IL8 as chemoattractants
Procedure: The assay was conducted in 48 wells chambers (Costar Nucleopore, Milan, Italy) according to Falk (4). The lower compartment of each chamber was filled with 27 μL of chemoattractant (IL-8, 50 ng/ml) in RPMI 0.1% BSA (SFM). Serum-free medium (SFM) was used for spontaneous migration without stimulus. The upper compartment was filled with 50 μL of polymorphonucleate (PMN) suspension in SFM (3×10^6 cells/ml); each experimental point was performed in sextuplicate. Chambers were incubated at 37° C. in 5% CO2 in humidified atmosphere for 45 minutes. Filters were removed and the cells fixed in 100% ethanol and stained with toluidine blue. The migrated cells were quantified by scanning of the filter surface and by densitometry of blue staining by NIH Imaging Analysis Software.
FIG. 3: PMN chemotaxis. Densitometry of migrated cells. IL-8 represents the stimulus in each sample, to which either AST or relevant peptides are added.

[2] = system: angiogenesis; test: Matrigel sponge in vivo angiogenesis assay; parameters: species or system C57B1 mice; settings: for effect of anti IL-12 antibody on the anti-angiogenic activity: neutralizing anti mouse IL-12 antibody added to the matrigel mixture
Procedure: the assay was performed in C57B1 mice as described (3).
To verify whether IL-12 was a mediator of AST function, a neutralizing anti mouse IL-12 antibody (Peproteck Inc. London) and respectively an irrelevant anti phage 13 antibody (5 prime, 3 prime Inc. Boulder, Co. 150 ng/ml) were added to the mixture.
After animal sacrifice, pellets were fixed in 4% PAF and paraffin embedded; […] sections were stained with hematoxylin-eosin standard procedure.
FIG. 1-b: matrigel in vivo angiogenesis assay with AST. Columns show means and standard error of groups comprising six animals each. KS-conditioned medium (KSCM) is the stimulus (control).
FIG. 1-c: matrigel in vivo angiogenesis assay with peptides.
A combination of peptides and anti IL-12 Ab was added to the samples containing KSCM as indicated.
FIG. 2, a-h: standard ematoxylin-eosin staining of the matrigel pellets relative to experiments in FIG. 1-c.

[3] = system: KS-imm cells; test: Xenotransplant of Kaposi sarcoma (KS-imm) tumor cells in nude mice; format: in vivo, CD1 nude mice; settings: single administration three days before cell injection
Procedure: CD1 nude mice were injected in the flank with 5 million KS-imm cells and split in four groups: one was injected peri-tumorally with 2.5 μg AST (Calbiochem, La Jolla, Calif.) in 100 μl PBS-BSA, a control group was injected with vehicle alone, a third group with 2.5 mg of peptide SEQ ID NO:1 or a control peptide. Mice were sacrificed at day 31.

Substance	activity in neutrophil chemotaxis assay (inhibition of migration) [1]	anti-angiogenic activity in matrigel sponges (hemoglobin quantification) ([2]; KS-conditioned medium (KSCM) as stimulus, compared with angiostatin)	angiogenesis inhibition by hematoxylin-eosin stain of matrigel pellets ([2]; histology of matrigel sponges)	local cellular infiltration in matrigel pellets ([2]; histology of matrigel sponges)	effect of anti IL-12 antibody on the anti-angiogenic activity [2]	tumor growth [3]
HNRTPENFPCKNL (listed as Homo sapiens) [peptide SEQ ID NO:1, 13mer from Kringle 3 of angiostatin, starting from position 307 of human plasminogen]	significantly higher compared to other angiostatin peptides	more active than angiostatin	potent angiogensis inhibition	drastically reduced	inhibited by and antibody anti IL-12	able to diminish tumor growth with respect to angiostatin
angiostatin					inhibited by and antibody anti IL-12	
